Experimental data from patent US20050101632A1, “Method for the treatment of inflammation” (priority 2000, published 2005).

System: oxazolone-induced hypersensitivity reaction in oxazolone-sensitized mice
Assay: Oxazolone-induced delayed-type hypersensitivity (dermal sensitization) in mice
Assay type: in vivo, CD1 mice

Structure (SMILES): C[C@]12CCC(=O)C=C1CC[C@@H]1[C@@H]2[C@@H](O)C[C@@]2(C)[C@H]1CC[C@]2(O)C(=O)CO [hydrocortisone]
- body weight (systemic effect) (1% hydrocortisone topical during the challenges, FIG. 7): decrease of body weight
- suppression of mean increase of ear thickness (MIET) (first challenge (acute inflammation), 1% topical twice daily, FIG. 4): 74%
- erythema of the ear (first challenge, topical twice daily): reduced erythema of the ear
